The structures appear in SMILES notation.

The target of the experiment is Cdc7/ASK (Homo sapiens, UniProt O00311). The experiment in a line: Cdc7 Biochemical Assay Method 1: 384 well ELISA, whole protein substrate MCM2, antibody against Phospho MCM2 (S53). Further details: purchased. The conditions noted are these: 2 μM ATP, read-out: Biochemical Method 1 (pIC50) (converted). In outline: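 MCM2 protein substrate was coated on nickel-chelate plates, then Cdc7/ASK was added with 2 μM ATP in 50 mM Tris-HCl pH 8.5, 10 mM MgCl2, 1 mM DTT, 4% DMSO, 90 min at room temperature. Phospho-MCM2 (S53) was detected by ELISA with an AP secondary and PNPP absorbance. IC50 was derived from % inhibition versus no-compound and no-enzyme controls.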
Chain of Cdc7/ASK (O00311 whole entry): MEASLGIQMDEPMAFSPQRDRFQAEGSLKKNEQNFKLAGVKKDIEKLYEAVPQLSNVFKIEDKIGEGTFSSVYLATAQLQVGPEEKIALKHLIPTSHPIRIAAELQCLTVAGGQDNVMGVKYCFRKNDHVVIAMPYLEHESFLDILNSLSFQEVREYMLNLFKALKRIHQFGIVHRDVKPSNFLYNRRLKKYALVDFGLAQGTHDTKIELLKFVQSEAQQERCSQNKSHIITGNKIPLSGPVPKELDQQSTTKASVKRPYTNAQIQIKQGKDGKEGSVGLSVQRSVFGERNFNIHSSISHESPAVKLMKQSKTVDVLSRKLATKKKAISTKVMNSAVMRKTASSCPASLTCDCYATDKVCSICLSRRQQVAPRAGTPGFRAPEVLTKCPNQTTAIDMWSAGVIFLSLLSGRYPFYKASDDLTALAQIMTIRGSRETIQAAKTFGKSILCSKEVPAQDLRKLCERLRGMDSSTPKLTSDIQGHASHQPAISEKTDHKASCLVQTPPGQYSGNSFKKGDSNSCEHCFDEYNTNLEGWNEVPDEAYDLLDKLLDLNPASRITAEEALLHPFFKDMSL
Chain of Cdc7/ASK (Q9UBU7 whole entry partner): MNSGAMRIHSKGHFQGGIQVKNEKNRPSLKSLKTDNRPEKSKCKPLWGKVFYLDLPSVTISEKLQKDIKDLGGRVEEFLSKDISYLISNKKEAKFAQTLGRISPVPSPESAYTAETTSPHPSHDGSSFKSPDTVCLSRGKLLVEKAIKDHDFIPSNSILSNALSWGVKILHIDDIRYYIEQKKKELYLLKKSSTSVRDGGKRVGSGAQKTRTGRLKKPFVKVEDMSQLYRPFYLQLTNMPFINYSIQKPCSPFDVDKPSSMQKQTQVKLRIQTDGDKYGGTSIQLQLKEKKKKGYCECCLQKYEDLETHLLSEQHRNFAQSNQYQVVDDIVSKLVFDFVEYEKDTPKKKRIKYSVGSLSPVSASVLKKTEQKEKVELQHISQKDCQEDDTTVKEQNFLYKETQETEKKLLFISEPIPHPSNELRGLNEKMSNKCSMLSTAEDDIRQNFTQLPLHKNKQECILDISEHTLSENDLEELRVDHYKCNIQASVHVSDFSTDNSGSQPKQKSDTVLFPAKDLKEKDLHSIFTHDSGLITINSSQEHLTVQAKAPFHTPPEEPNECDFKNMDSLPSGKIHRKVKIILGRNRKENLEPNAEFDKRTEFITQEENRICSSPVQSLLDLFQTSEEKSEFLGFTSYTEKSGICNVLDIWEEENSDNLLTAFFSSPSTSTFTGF
A general note: In an ELISA, binding on a coated surface is turned into a signal by an enzyme label.
Turning to `O=c1[nH]c(-c2ccnc(F)c2)nc(N2CCNCC2)c1Cl` [Compound 360], the IC50 is 1.51 nM.

Regarding `O=c1[nH]c(-c2ccncc2)nc(N2CCN(CC(F)F)CC2)c1Cl` [Compound 147], the IC50 is 4.27 nM.

On to `O=c1[nH]c(-c2ccnc(F)c2)nc(N2CCN[C@@H](C(F)(F)F)C2)c1Cl` [Compound 314], for which the IC50 is 1.12 nM.

Take `CC(C)[C@H]1CN(c2nc(-c3ccnc(F)c3)[nH]c(=O)c2Cl)CCN1` [Compound 170]: the IC50 was 1.1 nM.

For `NC[C@H]1CCCN(c2nc(-c3ccnc(F)c3)[nH]c(=O)c2Cl)C1` [Compound 362], the IC50 is 1.66 nM.

In the case of `NC[C@@H]1CCCN(c2nc(-c3ccnc(F)c3)[nH]c(=O)c2Cl)C1` [Compound 363], the IC50 was 4.68 nM.

In the case of `O=c1[nH]c(-c2ccncc2)nc(N2CCCOCC2)c1Cl` [Compound 186], the IC50 is 3.09 nM.

As for `C[C@@H]1CNCCN1c1nc(-c2ccncc2)[nH]c(=O)c1Cl` [Compound 364], the IC50 was 0.389 nM.

`O=c1[nH]c(-c2ccnc(F)c2)nc(N2CCCC(F)(F)C2)c1Cl` [Compound 90, 5-chloro-4-(3,3-difluoro-1-piperidyl)-2-(2-fluoro-4-pyridyl)-1H-pyrimidin-6-one]: the IC50 was 0.851 nM.

For the compound `O=c1[nH]c(-c2ccncc2)nc(N2CCN[C@H](C(F)(F)F)C2)c1Cl` [Compound 139], the IC50 was 9.55 nM.

For `CC(C)(C)[C@H]1CN(c2nc(-c3ccncc3)[nH]c(=O)c2F)CCN1` [Compound 185], the IC50 is 0.776 nM.

Regarding `C[C@H]1CN(c2nc(-c3ccncc3)[nH]c(=O)c2Cl)CCN1` [Compound 130], the IC50 was 2.57 nM.

`CC(C)[C@H]1CN(c2nc(-c3ccncc3)[nH]c(=O)c2F)CCN1` [Compound 308]: the IC50 was 0.794 nM.

Turning to `O=c1[nH]c(-c2ccncc2)nc(N2CCN[C@@H](C(F)(F)F)C2)c1Cl` [Compound 180], the IC50 is 1.45 nM.

Regarding `O=c1[nH]c(-c2ccnc(F)c2)nc(N2CCOCC2)c1Cl` [Compound 316], the IC50 is 1.32 nM.
